From patent publication US9695155B2, “Herbicidal substituted pyrimidinyloxy benzene compounds” (E. I. DU PONT DE NEMOURS AND COMPANY, priority 2013, dated 2017)

How the values were obtained:
giant foxtail [1] = test: Test A postemergence; format: in vivo, Setaria faberii; details: 0 to 100 scale where 0 is no effect and 100 is complete control
Summary of the method: (§1)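 Scoring: eye-based comparison with untreated controls, 0 for no effect through 100 for complete control, at about day 10. Treatments: directed soil spray preemergence; foliar spray postemergence on 2–10 cm plants at the one- to two-leaf stage. Medium: loam soil with sand.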

pigweed [2] = test: Test A postemergence; format: in vivo, Amaranthus retroflexus; details: 0 to 100 scale where 0 is no effect and 100 is complete control
Summary of the method: as §1

corn [3] = test: Test A postemergence; format: in vivo, Zea mays; details: 0 to 100 scale where 0 is no effect and 100 is complete control
Summary of the method: as §1

galium = test: Test C preemergence; format: in vivo, Galium aparine; details: for Galium plant response rating: preemergence
Summary of the method: (§2)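 Seeds were sown in loam–sand blend and sprayed preemergence, while plants at 1- to 4-leaf stage (2–18 cm) in peat-based medium received postemergence sprays; test chemicals were formulated in a non-phytotoxic solvent with surfactant. After 13–15 days in a greenhouse, injury was rated visually against controls, 0 (no effect) to 100 (complete control).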

corn [4] = test: Test C preemergence; format: in vivo, Zea mays; details: for Corn plant response rating: preemergence
Summary of the method: as §2

lambsquarters [5] = test: Test C preemergence; format: in vivo, Chenopodium album; details: preemergence, scale 0 (no effect) to 100 (complete control)
Summary of the method: as §2

morningglory [6] = test: Test C preemergence; format: in vivo, Ipomoea coccinea; details: preemergence
Summary of the method: as §2

ragweed [7] = test: Test C preemergence; format: in vivo, Ambrosia elatior; details: preemergence
Summary of the method: as §2

velvetleaf = test: Test C preemergence; format: in vivo, Abutilon theophrasti; details: preemergence
Summary of the method: as §2

large (Lg) crabgrass = test: Test C postemergence; format: in vivo, Digitaria sanguinalis; details: for Plant response rating, Crabgrass, Large: scale 0 to 100 (0 no effect, 100 complete control)
Summary of the method: as §2

giant foxtail [8] = test: Test C postemergence; format: in vivo, Setaria faberii; details: for Plant response rating, Foxtail, Giant: scale 0 to 100 (0 no effect, 100 complete control)
Summary of the method: as §2

lambsquarters [9] = test: Test C postemergence; format: in vivo, Chenopodium album; details: for Plant response rating, Lambsquarters: scale 0 to 100 (0 no effect, 100 complete control)
Summary of the method: as §2

morningglory [10] = test: Test C postemergence; format: in vivo, Ipomoea coccinea; details: for Plant response rating, Morningglory: scale 0 to 100 (0 no effect, 100 complete control)
Summary of the method: as §2

pigweed [11] = test: Test C postemergence; format: in vivo, Amaranthus retroflexus; details: for Plant response rating, Pigweed: scale 0 to 100 (0 no effect, 100 complete control)
Summary of the method: as §2

ragweed [12] = test: Test C postemergence; format: in vivo, Ambrosia elatior; details: for Plant response rating, Ragweed: scale 0 to 100 (0 no effect, 100 complete control)
Summary of the method: as §2

soybean = test: Test C postemergence; format: in vivo, Glycine max; details: for Plant response rating, Soybean: scale 0 to 100 (0 no effect, 100 complete control)
Summary of the method: as §2

waterhemp = test: Test C postemergence; format: in vivo, Amaranthus rudis; details: for Plant response rating, Waterhemp: scale 0 to 100 (0 no effect, 100 complete control)
Summary of the method: as §2

[13] = 16 g ai/ha, scale 0 to 100 (0 no effect, 100 complete control)
[14] = 62 g ai/ha, scale 0 (no effect) to 100 (complete control)
[15] = 125 g ai/ha, scale 0 (no effect) to 100 (complete control)
[16] = Preemergence, 31 g ai/ha, scale 0 to 100, 0 no effect, 100 complete control
[17] = 16 g ai/ha, postemergence, 0 is no effect, 100 is complete control
[18] = 125 g ai/ha, postemergence, visual rating

Structure (SMILES): Cc1cnc(Oc2cccc(C#N)c2-n2cc(I)cn2)nc1 [Compound 136]
- Foxtail, Giant plant response rating (giant foxtail [1]; 125 g ai/ha): 30
- Plant response rating, Foxtail, Giant (giant foxtail [1]; 500 g ai/ha): 90
- Pigweed plant response rating (pigweed [2]; 125 g ai/ha): 80
- Plant response rating, Pigweed (pigweed [2]; 500 g ai/ha): 100
- Corn plant response rating (corn [3]; 125 g ai/ha): 10
- Plant response rating, Corn (corn [3]; 500 g ai/ha): 60
- Galium plant response rating (galium; [13]): 0
- Galium plant response rating (galium; [14]): 30
- Galium plant response rating (galium; [15]): 85
- Plant response rating, Galium (galium; [16]): 0
- Corn plant response rating (corn [4]; [13]): 5
- Corn plant response rating (corn [4]; [14]): 5
- Corn plant response rating (corn [4]; [15]): 15
- Plant response rating, Corn (corn [4]; [16]): 0
- Lambsquarters plant response rating (lambsquarters [5]; 62 g ai/ha): 80
- Lambsquarters plant response rating (lambsquarters [5]; 125 g ai/ha): 100
- Morningglory plant response rating (morningglory [6]; [13]): 20
- Morningglory plant response rating (morningglory [6]; [14]): 10
- Morningglory plant response rating (morningglory [6]; [15]): 60
- Ragweed plant response rating (ragweed [7]; [13]): 0
- Ragweed plant response rating (ragweed [7]; [14]): 20
- Ragweed plant response rating (ragweed [7]; [15]): 70
- Velvetleaf plant response rating (velvetleaf; [13]): 5
- Velvetleaf plant response rating (velvetleaf; [14]): 30
- Velvetleaf plant response rating (velvetleaf; [15]): 90
- Plant response rating (0 to 100), Crabgrass, Large (large (Lg) crabgrass; [17]): 5
- Plant response rating, Crabgrass, Large (large (Lg) crabgrass; [18]): 15
- Plant response rating, Crabgrass, Large (large (Lg) crabgrass; Postemergence, 62 g ai/ha): 5
- Plant response rating (0 to 100), Foxtail, Giant (giant foxtail [8]; [17]): 5
- Plant response rating, Foxtail, Giant (giant foxtail [8]; [18]): 10
- Plant response rating, Foxtail, Giant (giant foxtail [8]; Postemergence, 62 g ai/ha): 5
- Plant response rating (0 to 100), Lambsquarters (lambsquarters [9]; [17]): 20
- Plant response rating, Lambsquarters (lambsquarters [9]; [18]): 75
- Plant response rating, Lambsquarters (lambsquarters [9]; Postemergence, 62 g ai/ha): 60
- Plant response rating (0 to 100), Morningglory (morningglory [10]; [17]): 5
- Plant response rating, Morningglory (morningglory [10]; [18]): 40
- Plant response rating, Morningglory (morningglory [10]; Postemergence, 62 g ai/ha): 50
- Plant response rating (0 to 100), Pigweed (pigweed [11]; [17]): 45
- Plant response rating, Pigweed (pigweed [11]; [18]): 55
- Plant response rating, Pigweed (pigweed [11]; Postemergence, 62 g ai/ha): 55
- Plant response rating (0 to 100), Ragweed (ragweed [12]; [17]): 25
- Plant response rating, Ragweed (ragweed [12]; [18]): 45
- Plant response rating, Ragweed (ragweed [12]; Postemergence, 62 g ai/ha): 45
- Plant response rating (0 to 100), Soybean (soybean; [17]): 35
- Plant response rating, Soybean (soybean; [18]): 90
- Plant response rating, Soybean (soybean; Postemergence, 62 g ai/ha): 75
- Plant response rating (0 to 100), Waterhemp (waterhemp; [17]): 40
- Plant response rating, Waterhemp (waterhemp; [18]): 30
- Plant response rating, Waterhemp (waterhemp; Postemergence, 62 g ai/ha): 35
